Laboratory results: the supplement of paper PMC4862054

Each compound was assayed on SK-BR-3 (assay: normalised response (% of control), CellTiter-Glo; higher = more viable cells (100 = DMSO, 0 = benzethonium chloride kill control)). Details: incubation time: 72 h.
Description: (§1)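 DSRT, 72 h incubation, CellTox Green / CellTiter-Glo readout. Signal is normalised to DMSO and benzethonium chloride controls. Value is the normalised response at dose 3.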
`NC(=O)c1cccc2cn(-c3ccc([C@@H]4CCCNC4)cc3)nc12` [MK-4827] (100 nM) gave a normalised response of 104%. `O=C(c1cc(Cc2n[nH]c(=O)c3ccccc23)ccc1F)N1CCN(C(=O)C2CC2)CC1` [Olaparib] (100 nM) showed a normalised response of 88.8%. `CN1CCN(c2nc(C3=C(c4c[nH]c5ccccc45)C(=O)NC3=O)c3ccccc3n2)CC1` [Sotrastaurin] (100 nM) showed a normalised response of 100%. `COc1cc2c(N3CCN(C(=O)Nc4ccc(OC(C)C)cc4)CC3)ncnc2cc1OCCCN1CCCCC1` [Tandutinib] (10 nM) was tested, and the normalised response was 100%. `CN1CCc2c(c3ccccc3n2Cc2ccc(C(=O)NO)cc2)C1` [Tubastatin A] (100 nM) gave a normalised response of 97.5%.

What follows are compounds tested on CAL-85-1 in the same assay as above. Details: incubation time: 72 h.
Description: as §1
For `Cc1cc2c(F)c(Oc3ncnn4cc(OC[C@@H](C)O)c(C)c34)ccc2[nH]1` [Brivanib] (10 nM), the normalised response was 102%. With `Nc1nc(Cl)nc2c1ncn2[C@@H]1O[C@H](CO)[C@@H](O)[C@@H]1F` [Clofarabine] (100 nM) the normalised response was 93.2%. Compound `CCN(CC)CCOc1ccc(C(=C(Cl)c2ccccc2)c2ccccc2)cc1` [Clomifene] (100 nM) has a normalised response of 101%. `NC1(c2ccc(-c3nc4ccn5c(=O)[nH]nc5c4cc3-c3ccccc3)cc2)CCC1` [MK-2206] (10 nM) showed a normalised response of 99.8%. In the case of `NC(=O)c1cccc2cn(-c3ccc([C@@H]4CCCNC4)cc3)nc12` [MK-4827] (100 nM), the normalised response is reported as 101%. Compound `O=C(c1cc(Cc2n[nH]c(=O)c3ccccc23)ccc1F)N1CCN(C(=O)C2CC2)CC1` [Olaparib] (100 nM) has a normalised response of 102%. Work on `CN1CCN(c2nc(C3=C(c4c[nH]c5ccccc45)C(=O)NC3=O)c3ccccc3n2)CC1` [Sotrastaurin] (100 nM) yielded a normalised response of 102%. Compound `COc1cc2c(N3CCN(C(=O)Nc4ccc(OC(C)C)cc4)CC3)ncnc2cc1OCCCN1CCCCC1` [Tandutinib] (10 nM) has a normalised response of 109%. With `CN1CCc2c(c3ccccc3n2Cc2ccc(C(=O)NO)cc2)C1` [Tubastatin A] (100 nM) the normalised response was 98.2%.

Each compound was assayed on MDA-MB-436 in the same assay as above. Details: incubation time: 72 h.
Description: as §1
Compound `Cc1cc2c(F)c(Oc3ncnn4cc(OC[C@@H](C)O)c(C)c34)ccc2[nH]1` [Brivanib] (10 nM) has a normalised response of 112%. `Nc1nc(Cl)nc2c1ncn2[C@@H]1O[C@H](CO)[C@@H](O)[C@@H]1F` [Clofarabine] (100 nM) showed a normalised response of 90.3%. With `CCN(CC)CCOc1ccc(C(=C(Cl)c2ccccc2)c2ccccc2)cc1` [Clomifene] (100 nM) the normalised response was 98.5%. Compound `NC1(c2ccc(-c3nc4ccn5c(=O)[nH]nc5c4cc3-c3ccccc3)cc2)CCC1` [MK-2206] (10 nM) has a normalised response of 102%. `NC(=O)c1cccc2cn(-c3ccc([C@@H]4CCCNC4)cc3)nc12` [MK-4827] (100 nM) showed a normalised response of 95.8%. `O=C(c1cc(Cc2n[nH]c(=O)c3ccccc23)ccc1F)N1CCN(C(=O)C2CC2)CC1` [Olaparib] (100 nM) was tested, and the normalised response was 91.3%. `CN1CCN(c2nc(C3=C(c4c[nH]c5ccccc45)C(=O)NC3=O)c3ccccc3n2)CC1` [Sotrastaurin] (100 nM) was tested, and the normalised response was 98.9%. For `COc1cc2c(N3CCN(C(=O)Nc4ccc(OC(C)C)cc4)CC3)ncnc2cc1OCCCN1CCCCC1` [Tandutinib] (10 nM), the normalised response was 106%. `CN1CCc2c(c3ccccc3n2Cc2ccc(C(=O)NO)cc2)C1` [Tubastatin A] (100 nM) showed a normalised response of 93.1%.

Each compound was assayed on CAL-148 in the same assay as above. Details: incubation time: 72 h.
Description: as §1
Compound `Cc1cc2c(F)c(Oc3ncnn4cc(OC[C@@H](C)O)c(C)c34)ccc2[nH]1` [Brivanib] (10 nM) has a normalised response of 108%. Compound `Nc1nc(Cl)nc2c1ncn2[C@@H]1O[C@H](CO)[C@@H](O)[C@@H]1F` [Clofarabine] (100 nM) has a normalised response of 96.2%. Work on `CCN(CC)CCOc1ccc(C(=C(Cl)c2ccccc2)c2ccccc2)cc1` [Clomifene] (100 nM) yielded a normalised response of 109%. `NC1(c2ccc(-c3nc4ccn5c(=O)[nH]nc5c4cc3-c3ccccc3)cc2)CCC1` [MK-2206] (10 nM) was tested, and the normalised response was 107%. Work on `NC(=O)c1cccc2cn(-c3ccc([C@@H]4CCCNC4)cc3)nc12` [MK-4827] (100 nM) yielded a normalised response of 112%. With `O=C(c1cc(Cc2n[nH]c(=O)c3ccccc23)ccc1F)N1CCN(C(=O)C2CC2)CC1` [Olaparib] (100 nM) the normalised response was 98.5%. `CN1CCN(c2nc(C3=C(c4c[nH]c5ccccc45)C(=O)NC3=O)c3ccccc3n2)CC1` [Sotrastaurin] (100 nM) gave a normalised response of 97.2%. `COc1cc2c(N3CCN(C(=O)Nc4ccc(OC(C)C)cc4)CC3)ncnc2cc1OCCCN1CCCCC1` [Tandutinib] (10 nM) showed a normalised response of 102%. Work on `CN1CCc2c(c3ccccc3n2Cc2ccc(C(=O)NO)cc2)C1` [Tubastatin A] (100 nM) yielded a normalised response of 106%.

The compounds below were run on MDA-MB-453 in the same assay as above. Details: incubation time: 72 h.
Description: as §1
`Cc1cc2c(F)c(Oc3ncnn4cc(OC[C@@H](C)O)c(C)c34)ccc2[nH]1` [Brivanib] (10 nM) gave a normalised response of 102%. Work on `Nc1nc(Cl)nc2c1ncn2[C@@H]1O[C@H](CO)[C@@H](O)[C@@H]1F` [Clofarabine] (100 nM) yielded a normalised response of 105%. In the case of `CCN(CC)CCOc1ccc(C(=C(Cl)c2ccccc2)c2ccccc2)cc1` [Clomifene] (100 nM), the normalised response is reported as 103%. For `NC1(c2ccc(-c3nc4ccn5c(=O)[nH]nc5c4cc3-c3ccccc3)cc2)CCC1` [MK-2206] (10 nM), the normalised response was 88.5%. For `NC(=O)c1cccc2cn(-c3ccc([C@@H]4CCCNC4)cc3)nc12` [MK-4827] (100 nM), the normalised response was 99.4%. Work on `O=C(c1cc(Cc2n[nH]c(=O)c3ccccc23)ccc1F)N1CCN(C(=O)C2CC2)CC1` [Olaparib] (100 nM) yielded a normalised response of 107%. `CN1CCN(c2nc(C3=C(c4c[nH]c5ccccc45)C(=O)NC3=O)c3ccccc3n2)CC1` [Sotrastaurin] (100 nM) gave a normalised response of 95.6%. `COc1cc2c(N3CCN(C(=O)Nc4ccc(OC(C)C)cc4)CC3)ncnc2cc1OCCCN1CCCCC1` [Tandutinib] (10 nM) showed a normalised response of 96.3%. Compound `CN1CCc2c(c3ccccc3n2Cc2ccc(C(=O)NO)cc2)C1` [Tubastatin A] (100 nM) has a normalised response of 96.3%.
